The values below come from publication PMC11982498 (Redox Biology, 2025).

In test [1] the test system is bio-ILPR (DNA, i motif) TGTCCCCACACCCCTGTCCCCACACCCCTGT
As to the kind of experiment: SPR. Particulars: K+ 100 mM; 20 mM MES, pH 5.5, 25 °C.

The target of a further test is HRAS promoter i-motif. As to the kind of experiment: SPR binding to HRAS promoter i-motif. As to conditions: MES buffer pH 5.5. On the technique in general: SPR reads the build-up and loss of mass on a sensor chip optically.
Test [2] relates to C-MYC gene transcription in SH-SY5Y cells. As to the kind of experiment: Real-time RT-PCR in SH-SY5Y cells, C-MYC. It counts as cell-based, human. As for the experimental part:
SH-SY5Y cells were treated with or without B14, and total RNA was subsequently isolated and purified. Reverse transcription was performed using a cDNA synthesis kit. The relative transcription levels of the genes were evaluated through quantitative real-time PCR using the SYBR Green-based method, as described in the Supplementary Date. Details regarding the primer sequences and the raw data can be found in Table S7 and Table S8.
^a -∆∆Ct = -[(Ct value of genes in treated sample - Ct value of genes in control) - (Ct value of β-actin in treated sample - Ct value of β-actin in control)]. ^b F: The relative expression fold.
Experiment 1: SH-SY5Y cells were treated with different concentration of B14. The Ct values of BAX, VEGF, CMYC and BCL-2 were obtained.
Total RNA was extracted from cells and mice liver tissue using RNAiso Plus (Takara, 9109, Japan). Following sample homogenization, chloroform was added, and the solution was allowed to have phase separation into an upper aqueous layer (containing RNA), an interphase, and a lower organic layer (containing DNA and proteins). RNA was precipitated from the aqueous phase using isopropanol, while DNA was precipitated from the aqueous-organic interphase using ethanol. Complementary DNA (cDNA) was synthesized using the One-Step RT-PCR Kit (Takara, Cat#639503, Japan).
Quantitative real-time polymerase chain reaction (qRT-PCR) was performed using the 2× RealStar SYBR Mixture (GenStar, Cat# A301-10, Guangzhou, China) on a LightCycler 480 II real-time PCR system (Roche, USA). Data were analyzed using the 2^−ΔΔCt method. Actin served as the internal control, and relative mRNA levels were normalized accordingly.
For orientation: Quantitative PCR measures a nucleic acid by following its amplification.

In the next test the test system is BCL-2 i-motif. Kind of test: CD spectra of BCL-2 i-motif. Format: binding. As for the experimental part: Figure S5. ESI-MS, UV, CD, and EMSA experiments were performed to examine the effect of B14 on BCL-2 promoter i-motif and G-quadruplex. (A) ESI-MS experiment for oligomer BCL-2 G4 alone, which was annealed in 1 × BPES buffer at pH 7.4. (B) ESI-MS experiment for above oligomer BCL-2 G4 with addition of B14 in 1 × BPES buffer at pH 7.4. (C-D) TO displacement with increasing amount of oligomer BCL-2 i-motif annealed in 1 X BPES buffer at pH 5.5 in the presence of 20 equivalents of B14 or A22. (E) EMSA experiment was performed for the effect of B14 on inducing BCL-2 i-motif formation. The lanes from left to right were as follow: BCL-2 i-motif alone at pH 5.5; BCL-2 i-motif alone at pH 6.2; BCL-2 i-motif plus 1 eq B14 at pH 6.2; BCL-2 i-motif plus 5 eq B14 at pH 6.2; BCL-2 i-motif plus 10 eq B14 at pH 6.2. (F) CD experiment was performed to study the interaction of B14 or A22 with BCL-2 promoter i-motif.
CD measurements were performed on a Chirascan circular dichroism spectrophotometer (Chirascan, England). A 10 mm path length quartz cuvette was used to record the spectra with a wavelength range of 230-350 nm with a 1 nm bandwidth. CD and CD melting experiments were performed at a fixed i-motif or G-quadruplex concentration (1 μM) with or without a fixed concentration (20 μM) of B14 and Curcumin in different buffers. […]

The subject of another test is BCL-2 IM. Kind of test: FRET fluorescence titration of double-labeled DNA. Format: binding. Particulars: pH 6.2. As for the experimental part:
Figure S3. Biophysical experiments were performed for binding of acridine derivative to BCL-2 promoter i-motif and other DNA structures. (A-C) SPR experiments were performed for binding of B14 to ILPR promoter i-motif, (G2C4)6 promoter i-motif, and HRAS promoter i-motif. Bio-ILPR, bio-(G2C4)6, and bio-HRAS were annealed in MES buffer at pH 5.5. (D) FRET experiment was performed for pH-dependent fluorescence change of BCL-2 promoter i-motif dual labeled with FAM and TAMRA at the 5´-end and 3´-end, respectively. […] (E) Dose-dependent fluorescence spectra changes at 516 nm for various dual labeled C-rich oligomers (representing i-motifs from promoters of BCL-2, C-KIT, C-MYC, C-JUN and TEL-C DNA) were measured with addition of increasing amount of B14. […] All the experiments were repeated for three times.
The oligonucleotides with fluorescent 5´-FAM and 3′-TAMRA labeling at concentration of 100 nM in 1 × BPES buffer were annealed by heating at 95 °C for 5 min followed by cooling to room temperature. The spectra from 500 nm to 700 nm of 100 μL mixture with addition of different equivalent compounds at 25 °C were recorded based on fluorescence emission (λex = 480 nm).

Test [3] deals with Aβ deposition in hippocampus of APP/PS1 mice. As to the kind of experiment: Immunofluorescence of hippocampal Aβ deposition. It counts as in vivo. Particulars: B14 10, 20, 40 mg/kg i.p. every other day. The text has this: Five months old male APP/PS1 mice, weighing 25–33 g, were purchased from Guangdong Medical Laboratory Animal Center and housed in the Laboratory Animal Center of Sun Yat-sen University (Guangzhou, China) for experimentation. All procedures were approved by the Animal Care and Use Committee of Sun Yat-sen University and complied with legal requirements and national guidelines for the care and maintenance of laboratory animals (Approval No. SYSU-IACUC-2024-002032). The mice were housed in a specific pathogen-free environment with a controlled temperature of 22 ± 1 °C and a 12-h dark/light cycle. The mice were fed with a standard diet, and 30 mice were randomly divided into 6 groups (N = 5). Compound B14 was dissolved in saline and administered at doses of 10, 20, or 40 mg/kg. APP/PS1 male mice were grown until 6 months of age, and then injected intraperitoneally with compound B14 every other day for 60 days. Behavioral experiments were then conducted, and tissue specimens were collected for biochemical analysis.

Entries after “also recorded” stand apart in the source; their conditions may differ.

`O=C(CCN1CCOCC1)Nc1ccc2c(c1)c(=O)c1cc(NC(=O)CCN3CCOCC3)ccc1n2-c1ccc2occc2c1` [Compound B14]: the KD in test [1] is above 50 µM. This compound yielded a Kd at HRAS promoter i-motif above 50 µM. For the same compound, the “-∆∆Ct, C-MYC” value in test [2] (6.25 μM B14) was -0.01; in test [2] (12.5 μM B14), -0.02; in test [2] (25 μM B14), -0.03. The “F = 2^-∆∆Ct (relative expression fold), C-MYC” value in test [2] (6.25 μM B14) was found to be 1.00; in test [2] (12.5 μM B14) it was 1.01; in test [2] (25 μM B14), 1.02. For the same compound, in the test on BCL-2 i-motif, the “CD absorption peak of BCL-2 i-motif” value is on record as “stronger effect than A22; also recorded: apparently enhanced absorption peak at 286 nm”. Also, the “fluorescence response of double-labeled DNA” value with BCL-2 IM is “dose-dependent effect on the fluorescence of BCL-2 IM”. In addition, in test [3], the “hippocampal Aβ deposition” value is “significantly reduced in a dose-dependent manner”.

By KD is commonly meant the concentration at which binding is half-saturated. Read a high KD as a looser complex. As usually defined, the Kd is a measure of binding affinity in units of concentration.
